This is an account of results in patent publication US6977260B2, “Piperidinyl prostaglandin E analogs” (Allergan, Inc., priority 2004, dated 2005).

The structures appear in SMILES notation.

Holding throughout (format): cell-based
What all share (settings): HEK-293-EBNA stable transfectants

One assay addresses T1, hTP (Homo sapiens, UniProt P21731).
T1 construct: expressed in transfected cells; host or cells: HEK-293-EBNA
T1 sequence (P21731 1-343): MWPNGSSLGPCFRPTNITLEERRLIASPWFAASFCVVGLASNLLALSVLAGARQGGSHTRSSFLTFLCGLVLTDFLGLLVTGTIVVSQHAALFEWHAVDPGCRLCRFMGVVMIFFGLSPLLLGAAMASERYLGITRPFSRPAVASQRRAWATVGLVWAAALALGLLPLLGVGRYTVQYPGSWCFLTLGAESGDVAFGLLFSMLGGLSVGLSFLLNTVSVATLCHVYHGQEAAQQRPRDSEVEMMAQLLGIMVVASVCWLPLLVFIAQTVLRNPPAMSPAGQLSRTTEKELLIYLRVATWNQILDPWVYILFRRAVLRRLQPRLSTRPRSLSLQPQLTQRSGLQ
Description: Functional data, human recombinant TP receptor stable transfectants. The protocol: (§1) Human Recombinant EP1, EP2, EP3, EP4, FP, TP, IP and DP Receptors: Stable Transfectants.
(§2) Plasmids encoding the human EP1, EP2, EP3, EP4, FP, TP, IP and DP receptors were prepared by cloning the respective coding sequences into the eukaryotic expression vector pCEP4 (Invitrogen). The pCEP4 vector contains an Epstein Barr virus (EBV) origin of replication, which permits episomal replication in primate cell lines expressing EBV nuclear antigen (EBNA-1). It also contains a hygromycin resistance gene that is used for eukaryotic selection. The cells employed for stable transfection were human embryonic kidney cells (HEK-293) that were transfected with and express the EBNA-1 protein. These HEK-293-EBNA cells (Invitrogen) were grown in medium containing Geneticin (G418) to maintain expression of the EBNA-1 protein. HEK-293 cells were grown in DMEM with 10% fetal bovine serum (FBS), 250 μg ml^−1 G418 (Life Technologies) and 200 μg ml^−1 gentamicin or penicillin/streptomycin.
(§3) For transfection, the cells were grown to 50-60% confluency on 10 cm plates. The plasmid pCEP4 incorporating cDNA inserts for the respective human prostanoid receptor (20 μg) was added to 500 μl of 250 mM CaCl2. HEPES buffered saline×2 (2×HBS, 280 mM NaCl, 20 mM HEPES acid, 1.5 mM Na2 HPO4, pH 7.05-7.12) was then added dropwise to a total of 500 μl, with continuous-vortexing at room temperature. After 30 min, 9 ml DMEM were added to the mixture. The DNA/DMEM/calcium phosphate mixture was then added to the cells, which had been previously rinsed with 10 ml PBS. The cells were then incubated for 5 hr at 37° C. in humidified 95% air/5% CO2. The calcium phosphate solution was then removed and the cells were treated with 10% glycerol in DMEM for 2 min. The glycerol solution was then replaced by DMEM with 10% FBS. The cells were incubated overnight and the medium was replaced by DMEM/10% FBS containing 250 μg ml^−1 G418 and penicillin/streptomycin. The following day hygromycin B was added to a final concentration of 200 μg ml^−1.
(§4) Ten days after transfection, hygromycin B resistant clones were individually selected and transferred to a separate well on a 24 well plate. At confluence each clone was transferred to one well of a 6 well plate, and then expanded in a 10 cm dish. Cells were maintained under continuous hygromycin selection until use.

For another assay, the target named is T2, hEP4 (Homo sapiens, UniProt P35408).
T2 construct: expressed in transfected cells; host or cells: HEK-293-EBNA
T2 sequence (P35408 whole entry): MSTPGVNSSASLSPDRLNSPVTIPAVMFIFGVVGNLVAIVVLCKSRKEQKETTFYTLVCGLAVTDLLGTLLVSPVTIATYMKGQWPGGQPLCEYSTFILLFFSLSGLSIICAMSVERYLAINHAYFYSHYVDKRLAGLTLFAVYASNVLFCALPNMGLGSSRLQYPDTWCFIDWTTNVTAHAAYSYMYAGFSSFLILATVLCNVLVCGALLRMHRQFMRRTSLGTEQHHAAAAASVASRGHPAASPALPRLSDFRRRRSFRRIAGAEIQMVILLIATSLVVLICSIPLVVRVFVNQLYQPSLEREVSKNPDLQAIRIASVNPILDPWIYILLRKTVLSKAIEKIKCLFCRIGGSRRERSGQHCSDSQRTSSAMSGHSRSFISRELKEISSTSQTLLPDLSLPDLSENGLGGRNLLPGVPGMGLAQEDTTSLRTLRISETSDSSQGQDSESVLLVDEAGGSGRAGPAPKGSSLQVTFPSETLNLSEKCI
The assay can be described thus: Functional data, human recombinant EP4 receptor stable transfectants. The protocol: as §1, §2, §3, §4

Another assay deals with T3, hEP3A (Homo sapiens, UniProt P43115).
T3 construct: expressed in transfected cells; host or cells: HEK-293-EBNA
T3 sequence (P43115 1-390): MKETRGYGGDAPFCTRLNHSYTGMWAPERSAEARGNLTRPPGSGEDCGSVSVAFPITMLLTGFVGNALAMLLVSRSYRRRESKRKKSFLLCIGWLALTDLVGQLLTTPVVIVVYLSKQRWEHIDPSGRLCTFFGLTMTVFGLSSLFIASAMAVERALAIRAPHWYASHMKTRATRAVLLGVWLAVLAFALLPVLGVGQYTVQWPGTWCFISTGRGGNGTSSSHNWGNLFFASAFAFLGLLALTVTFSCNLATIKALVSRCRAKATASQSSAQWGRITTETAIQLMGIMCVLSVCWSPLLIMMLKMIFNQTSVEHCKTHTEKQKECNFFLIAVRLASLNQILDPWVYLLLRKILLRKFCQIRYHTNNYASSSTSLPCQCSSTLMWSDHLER
The assay can be described thus: Functional data, human recombinant EP3 receptor stable transfectants. The protocol:
as §1, §2
(§5) For transfection, the cells were grown to 50-60% confluency on 10 cm plates. The plasmid pCEP4 incorporating cDNA inserts for the respective human prostanoid receptor (20 μg) was added to 500 μl of 250 mM CaCl2. HEPES buffered saline×2 (2×HBS, 280 mM NaCl, 20 mM HEPES acid, 1.5 mM Na2 HPO4, pH 7.05-7.12) was then added dropwise to a total of 500 μl, with continuous-vortexing at room temperature. […]

The target in another assay is T4, hEP1 (Homo sapiens, UniProt P34995).
T4 construct: expressed in transfected cells; host or cells: HEK-293-EBNA
T4 sequence (P34995 1-402): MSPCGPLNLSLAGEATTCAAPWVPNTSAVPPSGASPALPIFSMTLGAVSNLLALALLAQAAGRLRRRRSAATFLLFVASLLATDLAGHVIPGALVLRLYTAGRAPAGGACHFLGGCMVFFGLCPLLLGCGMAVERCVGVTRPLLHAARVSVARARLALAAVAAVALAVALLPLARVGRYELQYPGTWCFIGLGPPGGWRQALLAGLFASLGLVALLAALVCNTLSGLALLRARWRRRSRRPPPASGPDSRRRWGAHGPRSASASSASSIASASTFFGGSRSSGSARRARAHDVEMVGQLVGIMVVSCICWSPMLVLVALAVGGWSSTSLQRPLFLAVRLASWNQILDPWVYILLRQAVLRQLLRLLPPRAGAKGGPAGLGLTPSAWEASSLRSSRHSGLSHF
The assay can be described thus: Functional data, human recombinant EP1 receptor stable transfectants. The protocol: as §1, §2, §5

The target in a further assay is T5, hEP2 (Homo sapiens, UniProt P43116).
T5 construct: expressed in transfected cells; host or cells: HEK-293-EBNA
T5 sequence (P43116 whole entry): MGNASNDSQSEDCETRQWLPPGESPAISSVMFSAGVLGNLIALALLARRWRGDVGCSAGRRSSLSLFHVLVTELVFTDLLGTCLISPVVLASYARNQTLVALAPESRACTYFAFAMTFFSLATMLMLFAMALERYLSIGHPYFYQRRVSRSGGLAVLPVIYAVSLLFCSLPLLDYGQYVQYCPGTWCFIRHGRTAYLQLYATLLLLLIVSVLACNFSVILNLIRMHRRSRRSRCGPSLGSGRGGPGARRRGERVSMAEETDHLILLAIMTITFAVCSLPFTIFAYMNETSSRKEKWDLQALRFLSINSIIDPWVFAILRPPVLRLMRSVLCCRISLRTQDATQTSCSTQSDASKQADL
The assay can be described thus: Functional data, human recombinant EP2 receptor stable transfectants. The protocol: as §1, §2, §5

For `COC(=O)COCCCCN1C(=O)CCC[C@@H]1/C=C/C(=O)Cc1ccccc1` [Example 1, {4-[(R)-2-Oxo-6-((E)-3-oxophenyl-but-1-enyl)-piperidin-1-yl]-butoxy}-Acetic acid methyl ester], the EC50 (as a rule, the concentration giving half of the maximal effect) at hTP was greater than 10000 nM. `O=C(O)COCCCCN1C(=O)CCC[C@@H]1/C=C/C(=O)Cc1ccccc1` [Example 2, {4-[(R)-2-Oxo-6-((E)-3-oxo-4-phenyl-but-1-enyl)-piperidin-1-yl]-butoxy}-acetic acid]: the concentration for a half-maximal effect (EC50) on hEP4 is 300 nM; at hEP3A it was greater than 10000 nM; on hTP it was 2260 nM. As for `COC(=O)COCCCCN1C(=O)CCC[C@@H]1/C=C/C(O)Cc1ccccc1` (stereo partly drawn) [Example 3, {4-[(R)-2-((E)-3-Hydroxy-4-phenyl-but-1-enyl)-6-oxo-piperidin-1-yl]-butoxy}-acetic acid methyl ester], the concentration giving a half-maximal response (EC50) at hEP4 came out at 1100 nM. The same measure, in the same setting: the result for `O=C(O)COCCCCN1C(=O)CCC[C@@H]1/C=C/C(O)Cc1ccccc1` (stereo partly drawn) [Example 4, {4-[(R)-2-((E)-3-Hydroxy-4-phenyl-but-1-enyl)-6-oxo-piperidin-1-yl]-butoxy}-acetic acid] reads 145 nM.

`COC(=O)COCCCCN1C(=O)CCC[C@@H]1CCC(O)Cc1ccccc1` (stereo partly drawn) [Example 5, {4-[(R)-2-(3-Hydroxy-4-phenyl-butyl)-6-oxo-piperidin-1-yl]-butoxy}-acetic acid methyl ester]: the EC50 at hEP4 and at hEP3A was greater than 10000 nM in each case. Consider `O=C(O)COCCCCN1C(=O)CCC[C@@H]1CCC(O)Cc1ccccc1` (stereo partly drawn) [Example 6, {4-[(R)-2-(3-Hydroxy-4-phenyl-butyl)-6-oxo-piperidin-1-yl]-butoxy}-acetic acid], for which the concentration for a half-maximal effect (EC50) at hEP4 is greater than 10000 nM. For the molecule `O=C(O)COC/C=C\CN1C(=O)CCC[C@@H]1/C=C/C(=O)Cc1ccccc1` [Example 8, {(Z)-4-[(R)-2-Oxo-6-((E)-3-oxo-4-phenyl-but-1-enyl)-piperidin-1-yl]-but-2-enyloxy}-acetic acid], the figures for the EC50 at hEP4 and on hTP were 2560 nM and greater than 10000 nM, respectively. In the case of `COC(=O)COCCCCN1C(=O)CCC[C@@H]1CCC(=O)Cc1ccccc1` [Example 9, {4-[(R)-2-Oxo-6-(3-oxo-4-phenyl-butyl)-piperidin-1-yl]-butoxy}-acetic acid methyl ester], the EC50 at hEP4 was determined as 7540 nM. Turning to `O=C(O)COCCCCN1C(=O)CCC[C@@H]1CCC(=O)Cc1ccccc1` [Example 10, {4-[(R)-2-Oxo-6-(3-oxo-4-phenyl-butyl)-piperidin-1-yl]-butoxy}-acetic acid], the concentration for a half-maximal effect (EC50) at hEP4 was 1970 nM; at hTP, greater than 10000 nM. For the molecule `O=C(O)COC/C=C\CN1C(=O)CCC[C@@H]1/C=C/C(O)Cc1ccccc1` (stereo partly drawn) [Example 12, {(Z)-4-[(R)-2-((E)-3-Hydroxy-4-phenyl-but-1-enyl)-6-oxo-piperidin-1-yl]-but-2-enyloxy}-acetic acid], the EC50 at hEP4 is greater than 10000 nM. Consider `O=C(O)COC/C=C\CN1C(=O)CCC[C@@H]1CCC(=O)Cc1ccccc1` [Example 14, {(Z)-4[(R)-2-Oxo-6-(3-oxo-4-phenyl-butyl)-piperidin-1-yl]-but-2-enyloxy}-acetic acid], for which the concentration for a half-maximal effect (EC50) at hEP4 and on hTP was greater than 10000 nM throughout. Take `O=C(O)COC/C=C\CN1C(=O)CCC[C@@H]1CCC(O)Cc1ccccc1` (stereo partly drawn) [Example 16, {(Z)-4-[(R)-2-(3-Hydroxy-4-phenyl-butyl)-6-oxo-piperidin-1-yl]-but-2-enyloxy}-acetic acid]: the EC50 at hEP4 is greater than 10000 nM. With `O=C(O)COCCCCN1C(=O)CCC[C@@H]1/C=C/C(O)Cc1cccc(Cl)c1` (stereo partly drawn) [Example 17, (4-{(R)-2-[(E)4(3-Chlorophenyl)-3-hydroxy-but-1-enyl]-6-oxo-piperidin-1-yl}-butoxy)-acetic acid], the EC50 on hEP1 and at hEP2 was greater than 10000 nM each time. Consider `NC(=O)COCCCCN1C(=O)CCC[C@@H]1/C=C/C(O)Cc1cccc(Cl)c1` (stereo partly drawn) [Example 18, 2-(4-{(R)-2-[(E)-4-(3-Chlorophenyl)-3-hydroxy-but-1 enyl]-6-oxo-piperidin-1-yl}-butoxy)-acetamide], for which the EC50 at hTP is greater than 10000 nM.
